Experimental data: the NIST ThermoML archive (doi:10.1021/je060271a)

Details: 323.15 K, Liquid, Vibrating tube method

CCCCCCC(=O)OCC(COC(=O)CCCCCC)(COC(=O)CCCCCC)COC(=O)CCCCCC [pentaerythritol tetraheptanoate]
Details	mass density [kg/m3]
10134 kPa	962.4
10149 kPa	962.4
10164 kPa	962.4
10178 kPa	962.4
10196 kPa	962.4
10211 kPa	962.5
10229 kPa	962.4
10244 kPa	962.5
10259 kPa	962.5
10274 kPa	962.5
10292 kPa	962.5
10307 kPa	962.6
10322 kPa	962.6
10338 kPa	962.5
10356 kPa	962.7
10371 kPa	962.6
10386 kPa	962.7
10405 kPa	962.7
10420 kPa	962.7
10436 kPa	962.7
10468 kPa	962.6
10487 kPa	962.6
10503 kPa	962.8
10519 kPa	962.7
10538 kPa	962.7
10553 kPa	962.7
10572 kPa	962.8
10588 kPa	962.7
10604 kPa	962.8
10620 kPa	962.8
10639 kPa	962.8
10656 kPa	962.8
10672 kPa	962.7
10692 kPa	962.8
10708 kPa	962.8
10725 kPa	962.8
10741 kPa	962.8
10761 kPa	962.8
10777 kPa	962.8
10794 kPa	962.9
10814 kPa	962.9
10831 kPa	963
10851 kPa	963
10868 kPa	963
10885 kPa	962.9
10902 kPa	963
10923 kPa	963
10939 kPa	963
11105 kPa	963.1
11376 kPa	963.3
11395 kPa	963.2
11414 kPa	963.3
11433 kPa	963.2
11455 kPa	963.3
11474 kPa	963.3
11493 kPa	963.4
11516 kPa	963.3
11535 kPa	963.3
11558 kPa	963.4
11577 kPa	963.4
11597 kPa	963.4
11616 kPa	963.5
11640 kPa	963.4
11659 kPa	963.3
11979 kPa	963.7
12025 kPa	963.7
12045 kPa	963.6
12070 kPa	963.6
12091 kPa	963.7
12113 kPa	963.7
12138 kPa	963.7
12159 kPa	963.7
12181 kPa	963.8
12205 kPa	963.8
12226 kPa	963.7
12252 kPa	963.7
12274 kPa	963.9
12296 kPa	963.8
12322 kPa	963.9
12344 kPa	963.9
12367 kPa	964
12389 kPa	963.9
12416 kPa	963.9
12438 kPa	964
12488 kPa	963.9
12510 kPa	963.9
12533 kPa	964.1
12583 kPa	964.1
12606 kPa	964.1
12634 kPa	964.1
12680 kPa	964.2
12756 kPa	964.1
12832 kPa	964.3
12856 kPa	964.2
12884 kPa	964.2
12908 kPa	964.2
12937 kPa	964.3
13227 kPa	964.5
14188 kPa	965.1
14278 kPa	965.1
14314 kPa	965
14343 kPa	965.1
14609 kPa	965.3
14641 kPa	965.4
14675 kPa	965.3
14706 kPa	965.3
14744 kPa	965.4
14917 kPa	965.5
14957 kPa	965.6
14988 kPa	965.6
15013 kPa	965.6
15044 kPa	965.4
15070 kPa	965.6
15097 kPa	965.6
15124 kPa	965.6
15154 kPa	965.6
15175 kPa	965.8
15192 kPa	965.7
15213 kPa	965.7
15230 kPa	965.7
15251 kPa	965.6
15268 kPa	965.8
15287 kPa	965.7
15328 kPa	965.7
15347 kPa	965.7
15381 kPa	965.7
15629 kPa	966.1
15638 kPa	966.1
15649 kPa	966
15707 kPa	966
15727 kPa	966
15736 kPa	966
15745 kPa	966
15765 kPa	966.1
15774 kPa	966.1
15785 kPa	966.1
15794 kPa	966
15804 kPa	965.9
15814 kPa	966
15824 kPa	966.2
15833 kPa	966.2
15844 kPa	966.1
15863 kPa	966.1
15903 kPa	966.2
15953 kPa	966.3
15962 kPa	966.3
15972 kPa	966.2
15981 kPa	966.2
15992 kPa	966.3
16003 kPa	966.2
16012 kPa	966.2
16021 kPa	966.3
16033 kPa	966.3
16042 kPa	966.2
16052 kPa	966.3
16063 kPa	966.3
16072 kPa	966.3
16083 kPa	966.2
16092 kPa	966.3
16102 kPa	966.3
16112 kPa	966.2
16123 kPa	966.2
16133 kPa	966.3
16142 kPa	966.4
16154 kPa	966.3
16163 kPa	966.3
16175 kPa	966.3
16184 kPa	966.3
16194 kPa	966.4
16203 kPa	966.4
16215 kPa	966.3
16224 kPa	966.3
16234 kPa	966.5
16246 kPa	966.4
16256 kPa	966.3
16267 kPa	966.4
16277 kPa	966.3
16286 kPa	966.4
16296 kPa	966.5
16308 kPa	966.3
16317 kPa	966.4
16329 kPa	966.4
16339 kPa	966.3
16349 kPa	966.4
16360 kPa	966.4
16370 kPa	966.6
16380 kPa	966.4
16390 kPa	966.3
16402 kPa	966.4
16412 kPa	966.4
16422 kPa	966.5
16434 kPa	966.6
16443 kPa	966.5
16455 kPa	966.5
16465 kPa	966.5
16475 kPa	966.5
16487 kPa	966.6
16496 kPa	966.5
16507 kPa	966.6
16519 kPa	966.6
16529 kPa	966.6
16539 kPa	966.6
16551 kPa	966.5
16562 kPa	966.6
16572 kPa	966.5
16582 kPa	966.6
16594 kPa	966.5
16604 kPa	966.7
16614 kPa	966.6
16626 kPa	966.8
16636 kPa	966.6
16649 kPa	966.4
16657 kPa	966.6
16670 kPa	966.7
16680 kPa	966.6
16692 kPa	966.6
16702 kPa	966.7
16712 kPa	966.6
16725 kPa	966.6
16735 kPa	966.7
16823 kPa	966.7
16834 kPa	966.7
16844 kPa	966.8
16857 kPa	966.6
